Measured values: US8598145B2, “Mitochondrially delivered anti-cancer compounds” (priority 2008, dated 2013)

How the values were obtained:
EAhy926 cells = assay: Angiogenesis in vitro: wound-healing and tube-forming (FIG. 7); type: cell-based, human
Protocol: Wound-healing (A-F) and tube-forming activity (G, H) were assessed using the EC EAhy926 cells. For wound-healing activity, the cells were seeded in 35-mm Petri dishes and allowed to reach 100% confluency. The ‘injury’ was then performed, resulting in a denuded gap of 0.4-0.5 mm. Wound-healing activity in control cells and cells supplemented with 1, 5 or 10 μM MitoVES was assessed on the basis of proliferation and migration of cells into the denuded zone using a light microscope equipped with a grid and a digital camera (A). […] In panel C, representative images of injured control cells and cells treated with 10 μM MitoVES at different times are presented. […] EAhy926 cells were seeded at ˜10^5 per well in Matrigel-coated 24-well plates and allowed for 24 h to form tubes at the absence or presence of MitoVES. Complete capillaries connecting points of individual polygons (see General Materials and Methods) were counted per the field of 0.16 mm^2 and took as a measure of the tube-forming activity (F). […] At 20 h of treatment, the cells were retrieved from the Matrigel and assessed for apoptosis using the Annexin V binding method (H). Parental EAhy926 cells and their ρ^0 counterparts were seeded in Petri dishes at confluency, ‘injured’ as described above, and the wound-healing activity assessed in the absence or presence of 10 μM MitoVES (MVES) (I; see symbols above panel L). The healing rate was estimated from the slopes in panel I and plotted in […] (J). At 20 h, the cells were assessed for the level of apoptosis (K). Panel L documents tube-forming activity in Matrigel of the ρ^0 EAhy 926 cells in the absence or presence of 5 μM MitoVES. […]
To assess the effect of α-TOS on the wound-healing activity of the EAhy926 cells, the cells were seeded in […] Petri dishes and allowed to reach complete confluence. […] Regrowth of cells (wound healing) in the presence of α-TOS or α-TEA was assessed by following the kinetics of narrowing the denuded gap in the microscope equipped with a grid in the eyepiece and healing expressed as the ‘rate of filling the gap’ as the rate of healing in μm/h. […]

MS cells = assay: ROS production by flow cytometry, mammosphere cells (FIG. 8); type: cell-based, human; details: 3 h; α-TOS 50 μM, MitoVES homologues 5 μM
Protocol: Adherent MCF7 cells and the corresponding mammosphere cells (MS) were cultured and assessed for morphological changes by microscopy (A) and for expression levels of markers as indicators of “sternness” by RT-PCR (B) and flow cytometry (C), including the expression of CD44 and CD24 (D). The adherent MCF7 cells (E) and the MS cells (F) were treated with 5 μM MitoVES, 50 μM α-TOS or 10 μM parthenolide and assessed for their sensitivity to drug induced cell death. […] Adherent MCF7 cells (I) and MS cells (J) were treated for 3 h with α-TOS (50 μM) or MitoVES homologues containing different lengths in the aliphatic side chain (5 μM each, either 11, 7 or 5 carbon chain in length) and the treated cells assessed for production of reactive oxygen species (ROS) by flow cytometry.
Cellular ROS were detected indirectly by flow cytometry and directly by electron paramagnetic resonance (EPR) spectroscopy, following treatment of cells with α-TOS as indicated in the Legend to Figures. […] For indirect evaluation, cells were treated with α-TOS and reacted with dihydrodichlorofluorescein diacetate (DCF; Molecular Probes) for 30 min, and scored by flow cytometry for cells with high fluorescence, which was evaluated on the bases on increase in mean fluorescence intensity. […]

## Cc1c(C)c2c(c(C)c1OC(=O)CCC(=O)[O-])CCC(C)(CCCCCCCCCCC[P+](c1ccccc1)(c1ccccc1)c1ccccc1)O2 (stereo not shown) [MitoVE11S]
EAhy926 cells; relative to α-TOS
  fold greater potency as antiangiogenic drug than α-TOS: 5 fold
EAhy926 cells; same endothelial cell types
  concentration needed for comparable levels of effects on endothelial cells: 5 to 10 µM
EAhy926 cells; wound-healing, tube-forming and apoptosis assays
  angiogenesis in vitro: inhibits angiogenesis in vitro

## Cc1c(C)c2c(c(C)c1OC(=O)CCC(=O)O)CC[C@@](C)(CCC[C@H](C)CCC[C@H](C)CCCC(C)C)O2 [α-TOS, α-tocopheryl succinate, reference compound]
MS cells
  ROS production in MS cells: much lower levels
